Measurements published in patent publication US10485795B2, “FXR (NR1H4) binding and activity modulating compounds” (Gilead Sciences, Inc., priority 2011, dated 2019).
Read-outs that look alike come from different tables or passages of the source.

Legend:
[1] = target: T1, FXR ligand binding domain (Homo sapiens, UniProt Q96RI1); experiment: Mammalian One Hybrid (M1H) assay, Gal4 reporter in HEK293 cells; format: cell-based
T1 construct: expressed in transfected cells; host or cells: HEK293 (DSMZ), transient transfection with a pCMV-BD construct
T1 sequence (Q96RI1 187-472 isoform Q96RI1-2): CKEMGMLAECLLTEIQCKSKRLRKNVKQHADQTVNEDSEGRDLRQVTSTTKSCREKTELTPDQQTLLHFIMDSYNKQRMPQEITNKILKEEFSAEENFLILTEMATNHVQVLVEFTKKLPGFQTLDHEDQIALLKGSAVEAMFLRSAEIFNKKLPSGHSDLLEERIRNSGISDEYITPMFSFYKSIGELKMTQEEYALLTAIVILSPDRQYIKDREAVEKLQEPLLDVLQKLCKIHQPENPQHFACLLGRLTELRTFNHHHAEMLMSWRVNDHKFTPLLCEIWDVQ
Procedure: Determination of a ligand mediated Gal4 promoter driven transactivation to quantify ligand binding mediated activation of FXR was performed as follows: The cDNA part encoding the FXR ligand binding domain was cloned into vector pCMV-BD (Stratagene) as a fusion to the yeast GAL4 DNA binding domain under the control of the CMV promoter. […] The plasmid pFR-Luc (Stratagene) was used as the reporter plasmid, containing a synthetic promoter with five tandem repeats of the yeast GAL4 binding sites, driving the expression of the Photinus pyralis (American firefly) luciferase gene as the reporter gene. In order to improve experimental accuracy the plasmid pRL-CMV (Promega) was cotransfected. pRL-CMV contains the constitutive CMV promoter, controlling the expression of the Renilla reniformis luciferase. All Gal4 reporter gene assays were done in HEK293 cells (obtained from DSMZ, Braunschweig, Germany) grown in MEM with L-Glutamine and Earle's BSS supplemented with 10% fetal bovine serum, 0.1 mM nonessential amino acids, 1 mM sodium pyruvate, and 100 units Penicillin/[…] per mL at 37° C. in 5% CO2. Medium and supplements were obtained from Invitrogen. For the assay, […] were plated per well in 96 well plates in 100 μL per well MEM without Phenol Red and L-Glutamine and with Earle's BSS supplemented with 10% charcoal/dextran treated FBS (HyClone, South Logan, Utah), 0.1 mM nonessential amino acids, 2 mM glutamine, 1 mM sodium pyruvate, and 100 units Penicillin/[…] per mL, incubated at 37° C. in 5% CO2. The following day the cells were >90% confluence. […] MEM with the same composition as used for plating cells was added 2-4 h after addition of transfection mixture. Then compound stocks, prediluted in MEM were added (final vehicle concentration not exceeding 0.1%). […] All experiments were done in triplicates.

[2] = target: T2, human FXR alpha ligand binding domain (Homo sapiens, UniProt Q96RI1); experiment: FRET activity assay (ligand mediated cofactor peptide interaction); format: biochemical
T2 construct: made in house; host or cells: E. coli BL21(DE3), vector pDEST15
T2 sequence (Q96RI1 187-472 isoform Q96RI1-2): T1 sequence (Q96RI1 187-472 isoform Q96RI1-2)
Procedure: Determination of a ligand mediated cofactor peptide interaction to quantify ligand binding to the nuclear receptor FXR was performed as follows: Preparation of human FXR alpha ligand binding domain: The human FXRalpha LBD was expressed in E. coli strain BL21(DE3) as an N-terminally GST tagged fusion protein. The DNA encoding the FXR ligand binding domain was cloned into vector pDEST15 (Invitrogen). Expression was under control of an IPTG inducible T7 promoter. The amino acid boundaries of the ligand binding domain were amino acids 187-472 of Database entry NM_005123 (RefSeq). Expression and purification of the FXR-LBD: An overnight preculture of a transformed E. coli strain was diluted 1:20 in LB-Ampicillin medium and grown at 30° C. to an optical density of OD600=0.4-0.6. Gene expression was then induced by addition of 0.5 mM IPTG. Cells were incubated an additional 6 h at 30° C., 180 rpm. Cells were collected by centrifugation (7000×g, 7 min, rt). Per liter of original cell culture, cells were resuspended in 10 mL lysis buffer (50 mM Glucose, 50 mM Tris pH 7.9, 1 mM EDTA and 4 mg/mL lysozyme) and left on ice for 30 min. Cells were then subjected to sonication and cell debris removed via centrifugation (22000×g, 30 min, 4° C.). Per 10 mL of supernatant 0.5 mL prewashed Glutathione 4B sepharose slurry (Qiagen) was added and the suspension kept slowly rotating for 1 h at 4° C. Glutathione 4B sepharose beads were pelleted by centrifugation (2000×g, 15 sec, 4° C.) and washed twice in wash buffer (25 mM Tris, 50 mM KCl, 4 mM MgCl2 and 1M NaCl). The pellet was resuspended in 3 mL elution buffer per liter of original culture (elution buffer: 20 mM Tris, 60 mM KCl, 5 mM MgCl2 and 80 mM glutathione added immediately prior to use as powder). The suspension was left rotating for 15 min at 4° C., the beads pelleted and eluted again with half the volume of elution buffer than the first time. The eluates were pooled and dialysed overnight in 20 mM Hepes buffer (pH 7.5) containing 60 mM KCl, 5 mM MgCl2 as well as 1 mM dithiothreitol and 10% (v/v) glycerol. The protein was analysed by SDS-Page.
The method measures the ability of putative ligands to modulate the interaction between the purified bacterial expressed FXR ligand binding domain (LBD) and a synthetic biotinylated peptide based on residues 676-700 of SRC-1 (LCD2, 676-700). The sequence of the peptide used was B-[…]-COOH where the N-terminus was biotinylated (B). The ligand binding domain (LBD) of FXR was expressed as fusion protein with GST in BL-21 cells using the vector pDEST15. Cells were lysed by sonication, and the fusion proteins purified over glutathione sepharose (Pharmacia) according to the manufacturers instructions. For screening of compounds for their influence on the FXR-peptide interaction, the Perkin Elmer LANCE technology was applied. This method relies on the binding dependent energy transfer from a donor to an acceptor fluorophor attached to the binding partner of interest. For ease of handling and reduction of background from compound fluorescence LANCE technology makes use of generic fluorophore labels and time resolved detection Assays were done in a final volume of 25 μL in a 384 well plate, in a Tris-based buffer (20 mM Tris-HCl pH 7.5; 60 mM KCl, 5 mM MgCl2; 35 ng/μL BSA), containing 20-60 ng/well recombinantly expressed FXR-LBD fused to GST, 200-600 nM N-terminally biotinylated peptide, representing SRC1 aminoacids 676-700, 200 ng/well Streptavidin-xIAPC conjugate (Prozyme) and 6-10 ng/well Eu W1024-antiGST (Perkin Elmer). DMSO content of the samples was kept at 1%. After generation of the assay mix and diluting the potentially FXR modulating ligands, the assay was equilibrated for 1 h in the dark at rt in FIA-plates black 384 well (Greiner). The LANCE signal was detected by a Perkin Elmer VICTOR2VTM Multilabel Counter. The results were visualized by plotting the ratio between the emitted light at 665 and 615 nm. […]

[3] = Gal4-FXR LBD transactivation, HEK293 cells, read-out: EC50 potency range (Group), M1H assay
[4] = FXR-LBD/SRC-1 peptide interaction, LANCE, read-out: EC50 (Group), FRET activity assay

EC50 [1, 3] [nM] | EC50 [2, 4] [nM] | EC50 [1] [nM] | EC50 [2] [nM] | Structure (SMILES)
25 to 100 | 25 to 100 | – | – | COc1ccc(C(=O)O)cc1C1CC(O)(c2ccc(OCc3c(-c4c(Cl)cccc4Cl)noc3C3CC3)cc2Cl)C1 (single isomer, unassigned) [13/3]
25 to 100 | < 25 | – | – | Cn1nc(C(=O)O)c2ccc(C3CC(O)(c4ccc(OCc5c(-c6c(Cl)cccc6Cl)noc5C5CC5)cc4Cl)C3)cc21 (stereo not drawn) [Example 10, 6-(3-(2-Chloro-4-((5-cyclopropyl-3-(2,6-dichlorophenyl)isoxazol-4-yl)methoxy)phenyl)-3-hydroxycyclobutyl)-1-methyl-1H-indazole-3-carboxylic Acid]
25 to 100 | 25 to 100 | – | – | CC(C)n1nc(C(=O)O)cc1[C@H]1C[C@@](O)(c2ccc(OCc3c(-c4c(Cl)cccc4Cl)noc3C3CC3)cc2Cl)C1 [Example 8A, 5-((1r,3r)-3-(2-Chloro-4-((5-cyclopropyl-3-(2,6-dichlorophenyl)isoxazol-4-yl)methoxy)phenyl)-3-hydroxycyclobutyl)-1-isopropyl-1H-pyrazole-3-carboxylate]
< 25 | > 100 | – | – | Cc1ccc(C2CC(O)(c3ccc(OCc4c(-c5c(Cl)cccc5Cl)noc4C4CC4)cc3Cl)C2)cc1C(=O)O (single isomer, unassigned) [13/6]
> 100 | < 25 | – | – | CC(C)n1nc(C(=O)NCC(=O)O)cc1C1CC(O)(c2ccc(OCc3c(-c4c(Cl)cccc4Cl)noc3C3CC3)cc2Cl)C1 (stereo not drawn) [Example 14/1]
– | – | > 100 | < 25 | O=C(O)c1ccnc(N2CC(O)(c3ccc(OCc4c(-c5c(Cl)cccc5Cl)noc4C4CC4)cc3Cl)C2)c1 (single isomer, unassigned) [13/9]
> 100 | 25 to 100 | – | – | NS(=O)(=O)c1cccc(C2CC(O)(c3ccc(OCc4c(-c5c(Cl)cccc5Cl)noc4C4CC4)cc3Cl)C2)c1 (stereo not drawn) [Example 5, 3-(3-(2-Chloro-4-((5-cyclopropyl-3-(2,6-dichlorophenyl)isoxazol-4-yl)methoxy)phenyl)-3-hydroxycyclobutyl)benzenesulfonamide]
> 100 | < 25 | – | – | CS(=O)(=O)NC(=O)c1cccc([C@H]2C[C@](O)(c3ccc(OCc4c(-c5c(Cl)cccc5Cl)noc4C4CC4)cc3Cl)C2)c1 [Example 4, 3-((1s,3s)-3-(2-Chloro-4-((5-cyclopropyl-3-(2,6-dichlorophenyl)isoxazol-4-yl)methoxy)phenyl)-3-hydroxycyclobutyl)-N-(methylsulfonyl)benzamide]
25 to 100 | 25 to 100 | – | – | O=C(O)c1cccc([C@H]2C[C@](O)(c3ccc(OCc4c(-c5c(Cl)cccc5Cl)noc4C4CC4)cc3Cl)C2)c1 [Example 2, 3-((1s,3s)-3-(2-Chloro-4-((5-cyclopropyl-3-(2,6-dichlorophenyl)isoxazol-4-yl)methoxy)phenyl)-3-hydroxycyclobutyl)benzoic Acid]
– | < 25 | – | – | CC(C)n1nc(C(=O)NCCS(=O)(=O)O)cc1C1CC(O)(c2ccc(OCc3c(-c4c(Cl)cccc4Cl)noc3C3CC3)cc2Cl)C1 (stereo not drawn) [14/2]
25 to 100 | 25 to 100 | – | – | O=C(O)c1ccc(C2CC(O)(c3ccc(OCc4c(-c5c(Cl)cccc5Cl)noc4C4CC4)cc3Cl)C2)cc1 (single isomer, unassigned) [Example 13/1]
< 25 | 25 to 100 | – | – | Cc1ccc(C(=O)O)cc1C1CC(O)(c2ccc(OCc3c(-c4c(Cl)cccc4Cl)noc3C3CC3)cc2Cl)C1 (single isomer, unassigned) [13/4]
25 to 100 | 25 to 100 | – | – | O=C(O)c1cccc(N2CC(O)(c3ccc(OCc4c(-c5c(Cl)cccc5Cl)noc4C4CC4)cc3Cl)C2)c1 (single isomer, unassigned) [13/7]
> 100 | > 100 | – | – | Cc1cc(C2CC(O)(c3ccc(OCc4c(-c5c(Cl)cccc5Cl)noc4C4CC4)cc3Cl)C2)cc(C)c1C(=O)O (single isomer, unassigned) [13/2]
